The source of these data is paper PMC10305617, “Sesquiterpene Coumarin Ethers with Selective Cytotoxic Activities from the Roots of Ferula huber-morathii Peşmen (Apiaceae) and Unequivocal Determination of the Absolute Stereochemistry of Samarcandin” (Pharmaceuticals, 2023).

One may read the IC50 as the concentration that gives 50% inhibition. Low values mean greater potency, high ones weaker potency.

SMILES strings stand for the structures.

Common to all, as to assay type: cell-based, Human
Experiment [1] relates to MCF-7. As to the kind of experiment: MTS cell viability (cytotoxic activity) assay, MCF-7. As to conditions: MCF-7, MTS, 72 h; root extracts.
Experiment [2] relates to COLO 205. As to the kind of experiment: MTS cell viability (cytotoxic activity) assay, COLO 205. The following applies: COLO 205, MTS, 72 h; mean ± SD, at least three experiments. The text has this: (§1) Human colorectal cancer (COLO 205, CCL-222), breast cancer (MCF-7, HTB-22), chronic myelogenous leukemia (K-562, CCL-243), and umbilical vein/vascular endothelium (HUVEC, CRL-1730) cell lines were obtained from the American Type Culture Collection. The COLO 205, MCF-7, K-562, and HUVEC cell lines were maintained in Roswell Park Memorial Institute ([…], Wisent, Montreal, QC, CANADA), Eagle′s Minimum Essential Medium (EMEM, Wisent, Montreal, QC, CANADA), Iscove’s Modified Dulbecco’s Medium (IMDM, Wisent, Montreal, QC, CANADA), and Dulbecco′s Modified Eagle Medium (DMEM, Wisent, Montreal, QC, CANADA) supplemented with 10% fetal bovine serum (Capricorn, Ebsdorfergrund, Germany), 100 U/mL penicillin, and 100 µg/mL streptomycin (Wisent, Montreal, QC, CANADA), respectively. All of the cell lines were cultured at 37 °C in a humidified atmosphere containing 5% CO2.
(§2) A 3-[4,5-dimethylthiazol-2-yl]-5-[3-carboxymethoxyphenyl]-2-[4-sulfophenyl]-2H-tetrazolium, inner salt (MTS) cell viability assay was performed to evaluate the cytotoxic activities of the sesquiterpene coumarin ethers isolated from Ferula huber-morathii. HUVEC (1 × 10^4), COLO 205 (3 × 10^4), K-562 (3 × 10^4), and MCF7 (5 × 10^4) were plated in 96-well plates. Then, 24 h later, the tested compounds were dissolved in DMSO, and the cells were exposed to the different concentrations (131.58–1.028 µM) of the compounds for 72 h. Cisplatin and doxorubicin were used as a positive control. Next, an MTS/phenazine methosulfate (PMS) (Promega, Madison, WI, USA and Sigma, St. Louis, MO, USA respectively) mixture was added to each well and incubated for 1–4 h at 37 °C. The absorbance was read on a microplate reader (Biotek, Winooski, VT, USA) at 490 nm. The cytotoxic activities of the compounds were expressed as an IC50 value. The % inhibition of cell proliferation was calculated using the formula: % Inhibition = [1-(A490test/A490cont)] × 100, where A490test = absorbance of the test sample and A490cont = absorbance of the control sample [88]. The values of the 50% inhibition of the cell proliferation (IC50) were calculated by locating the x-axis values corresponding to one-half of the absorbance values of the sample.

Experiment [3] concerns caspase-8. As to the kind of experiment: Caspase-8 colorimetric activity assay in COLO 205 cells. As to conditions: COLO 205, 24 h, highest concentration (131.58 µM). The method, then: (§3) The caspase-3, -8, and -9 activities were detected by following the protocol of the caspase-3, -8, -9 colorimetric assay kits (Biovision, K106, K113, K119, Mountain View, CA, USA). The cells treated with mogoltadone (5) for 24 h were harvested and lysed with a RIPA (50 mM Tris-HCl, pH 8.0, 150 mM NaCl, 1% Nonidet P-40, 0.5% sodium deoxycholate and 0.1% SDS) cell lysis buffer. The lysed cells were centrifuged at 22,000 g for 30 min and the supernatant was collected in a tube. The samples (200 µg protein) were incubated with caspase substrates (final concentration, 200 µM) at 37° C for 2 h and read on a microplate reader at 405 nm. The fold-increase in enzyme activity was detected by comparison with the untreated control.

Experiment [4] deals with caspase-3. As to the kind of experiment: Caspase-3 colorimetric activity assay in COLO 205 cells. The following applies: COLO 205, 24 h, highest concentration (131.58 µM). The method, then: as §3
Experiment [5] concerns K-562. As to the kind of experiment: MTS cell viability (cytotoxic activity) assay, K-562. As to conditions: K-562, MTS, 72 h; root extracts.
In experiment [6] the test system is HUVEC. As to the kind of experiment: MTS cell viability (cytotoxic activity) assay, non-cancerous HUVEC. The following applies: 72 h, mean ± SD, at least three experiments.
Excerpt: as §1, §2

Experiment [7] has as its system MCF-7. As to the kind of experiment: MTS cell viability (cytotoxic activity) assay, MCF-7. The following applies: MCF-7, MTS, 72 h; mean ± SD, at least three experiments.
Excerpt: as §1, §2

Experiment [8] concerns K-562. As to the kind of experiment: MTS cell viability (cytotoxic activity) assay, K-562. The following applies: K-562, MTS, 72 h; mean ± SD, at least three experiments.
Excerpt: as §1, §2

Experiment [9] has as its system caspase-9. As to the kind of experiment: Caspase-9 colorimetric activity assay in COLO 205 cells. The following applies: COLO 205, 24 h, highest concentration (131.58 µM). The method, then:
as §3

Take `N.N.[Cl][Pt][Cl]` [Cisplatin, reference compound]: the “IC50 (µg/mL) MCF-7” value in experiment [1] is listed as 35.52 ± 0.76 µg/mL. Besides, the half-maximal inhibitory concentration (IC50) was 112 ± 3.11 µM in experiment [2], 40.7 ± 1.12 µM in [6], 64.2 ± 5.25 µM in experiment [7] and 8.1 ± 0.25 µM in experiment [8]. In [3], the “increase in caspase-8 activity compared with the control” value is on record as 1.8 fold. Further, the “increase in caspase-3 activity compared with the control” value in experiment [4] was found to be 6.73 fold. Further, the “IC50 (µg/mL) K-562” value in experiment [5] came out at 9.73 ± 0.30 µg/mL. Moreover, the “increase in caspase-9 activity compared with the control” value in [9] was 2.07 fold.
